Values of other authors in patent US7550593B2, “Process for the preparation of finasteride Form I” (Cipla Limited, priority 2003, dated 2009).

Test system: serum DHT concentration
Conditions: within 24 hours of oral dosing with a 1 mg tablet

CC(C)(C)NC(=O)[C@H]1CC[C@H]2[C@@H]3CC[C@H]4NC(=O)C=C[C@]4(C)[C@H]3CC[C@]12C [Finasteride, 17β-(N-t-butylcarbamoyl)-4-aza-5-alpha-androst-1-ene-3-one]
suppression of serum DHT concentration: 65%
